Values quoted from earlier work, collected in US20160034667A1, “TAILORED DRUG THERAPIES AND METHODS AND SYSTEMS FOR DEVELOPING SAME” (COMPANION DX REFERENCE LAB, LLC, priority 2014, published 2016).
Like-named read-outs stand apart in the source and are kept apart here.

Experiments:
[1] = tested on: NSCLC patients with drug-sensitive EGFR mutations
CYP2D6 = CYP2D6 (Homo sapiens, UniProt P10635)
[2] = tested on: molecularly unselected NSCLC patients; details: FIG. 8 (A)
[3] = not given; remark: listed apart in the source
[4] = printed on the line of the peak range
[5] = printed on the line of the trough range

Sequence of CYP2D6 (P10635 whole entry): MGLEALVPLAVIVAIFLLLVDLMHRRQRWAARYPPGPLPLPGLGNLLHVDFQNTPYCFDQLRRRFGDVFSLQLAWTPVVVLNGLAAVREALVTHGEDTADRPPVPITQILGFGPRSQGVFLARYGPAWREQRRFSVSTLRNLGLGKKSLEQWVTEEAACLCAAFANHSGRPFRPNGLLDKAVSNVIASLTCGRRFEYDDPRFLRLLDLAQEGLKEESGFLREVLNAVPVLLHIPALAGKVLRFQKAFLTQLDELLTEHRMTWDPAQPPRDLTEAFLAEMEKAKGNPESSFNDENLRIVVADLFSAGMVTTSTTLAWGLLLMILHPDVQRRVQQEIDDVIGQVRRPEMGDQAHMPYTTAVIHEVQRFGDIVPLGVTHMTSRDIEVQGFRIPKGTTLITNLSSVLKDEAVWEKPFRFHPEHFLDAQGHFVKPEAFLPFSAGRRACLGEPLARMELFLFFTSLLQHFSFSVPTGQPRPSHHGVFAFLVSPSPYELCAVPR

Row | Compound | Critical (in vivo) | Therapeutic Range (in vivo) | t1/2 (in vivo) | other results
1 | CC(=O)Nc1ccc(O)cc1 [Acetaminophen] | >40 mg/L | 10 to 25 mg/L | 1 to 3 h | –
2 | NCC[C@H](O)C(=O)N[C@@H]1C[C@H](N)[C@@H](O[C@H]2O[C@H](CN)[C@@H](O)[C@H](O)[C@H]2O)[C@H](O)[C@H]1O[C@H]1O[C@H](CO)[C@@H](O)[C@H](N)[C@H]1O [Amikacin] | >40 mg/L | – | 2.5 h | Therapeutic Range, peak: peak 20-30 mg/L,; Therapeutic Range, trough: trough 1-8 mg/L
3 | NC(=O)N1c2ccccc2C=Cc2ccccc21 [Carbamazepine] | >15 mg/L | 8 to 12 mg/L | 10 to 48 h | –
4 | C[C@H]1O[C@@H](O[C@H]2[C@@H](O)C[C@H](O[C@H]3[C@@H](O)C[C@H](O[C@H]4CC[C@@]5(C)[C@H](CC[C@@H]6[C@@H]5C[C@@H](O)[C@]5(C)[C@@H](C7=CC(=O)OC7)CC[C@]65O)C4)O[C@@H]3C)O[C@@H]2C)C[C@H](O)[C@@H]1O [Digoxin] | – | – | 33 to 51 h | –
5 | CCN(CC)CC(=O)Nc1c(C)cccc1C [Lidocaine] | >8.0 mg/L | 1.5 to 5 mg/L | – | –
6 | [Li] [Lithium] | >2.0 mmol/L | 0.5 to 1.5 mmol/L | 19 h | –
7 | CCN(CC)CCNC(=O)c1ccc(NC(C)=O)cc1 [NAPA, N-acetylprocainamide] | – | – | 6 to 12 h | –
8 | CCC1(c2ccccc2)C(=O)NC(=O)NC1=O [Phenobarbital] | – | – | 72 to 100 h | –
9 | O=C1NC(=O)C(c2ccccc2)(c2ccccc2)N1 [Phenytoin] | >25 mg/L | 10 to 20 mg/L | 6 to 24 h | –
10 | CCC1(c2ccccc2)C(=O)NCNC1=O [Primidone] | >15 mg/L | 5 to 12 mg/L | 6 to 12 h | –
11 | C=C[C@H]1C[N@@]2CC[C@H]1C[C@@H]2[C@@H](O)c1ccnc2ccc(OC)cc12 [Quinidine] | >7 mg/L | – | – | –
12 | O=C(O)c1ccccc1O [Salicylate] | >450 mg/L | 100 to 300 mg/L | 2 to 19 h | –
13 | Cn1c(=O)c2[nH]cnc2n(C)c1=O [Theophylline] | – | 10 to 20 mg/L | 3 to 9 h | –
14 | NC[C@H]1O[C@H](O[C@H]2[C@H](O)[C@@H](O[C@H]3O[C@H](CO)[C@@H](O)[C@H](N)[C@H]3O)[C@H](N)C[C@@H]2N)[C@H](N)C[C@@H]1O [Tobramycin] | – | – | 2 h | Therapeutic Range, peak: peak 4-10 mg/L,; Critical [4]: >12 mg/L,; Critical [5]: >5 mg/L; Therapeutic Range, trough: trough 0.5-1.5 mg/L
15 | CCCC(CCC)C(=O)O [Valproic acid] | >200 mg/L | 50 to 100 mg/L | 8 to 15 h | –
16 | CN[C@H](CC(C)C)C(=O)N[C@H]1C(=O)N[C@@H](CC(N)=O)C(=O)N[C@H]2C(=O)N[C@H]3C(=O)N[C@H](C(=O)N[C@H](C(=O)O)c4cc(O)cc(O)c4-c4cc3ccc4O)[C@H](O)c3ccc(c(Cl)c3)Oc3cc2cc(c3O[C@@H]2O[C@H](CO)[C@@H](O)[C@H](O)[C@H]2O[C@H]2C[C@](C)(N)[C@H](O)[C@H](C)O2)Oc2ccc(cc2Cl)[C@H]1O [Vancomycin] | – | – | 5.0 to 6.5 h | Therapeutic Range, peak: peak 30-40 mg/L,; Critical [4]: >50 mg/L,; Critical [5]: >15 mg/L; Therapeutic Range, trough: trough 5-15 mg/L
17 | C#Cc1cccc(Nc2ncnc3cc(OCCOC)c(OCCOC)cc23)c1 [erlotinib] | – | – | – | response in patients with drug-sensitive EGFR mutations at Exon 19 and 21 [1]: significantly better response
18 | COc1cc2ncnc(Nc3ccc(F)c(Cl)c3)c2cc1OCCCN1CCOCC1 [gefitinib, Gefitinib] | – | – | – | inhibition of CYP2D6 activity (CYP2D6): weak inhibitor; progression free survival rate [2]: no detectable change; reduction of area under the curve of gefitinib ([3]; co-medication with CYP3A4 inducer rifampin): 83%; exposure to gefitinib ([3]; co-medication with CYP3A4 inhibitor (intraconazole), health men): increases exposure
19 | Gentamicin | >12 mg/L | – | 2 h | Therapeutic Range, peak: peak 4-10 mg/L,; Therapeutic Range, trough: trough 1-2 mg/L
